Measured values published in PubChem BioAssay AID1918942 (Molecular Pharmacology Branch, DTP, NCI, 2023).
pIC50: −log10 of the molar value.

Test system: 743489-274-T-PDC complex spheroid viability
Test: Anticancer human tumor 743489-274-T-PDC patient-derived renal cell carcinoma cell line growth inhibition
Conditions: for pIC50: curve of first compound; for viability, T/C: stronger effect = lower value
Procedure, shortened: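 Drug combinations with the LSD1 inhibitor iadademstat tested on tumor cells co-cultured as spheroids with endothelial cells and mesenchymal stem cells. Concentrations descended in half-log increments from clinical Cmax or 10 microM.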

[1] = second compound 0.1 µM, first compound 0.0316 µM
[2] = second compound 0.1 µM, first compound 0.1 µM
[3] = second compound 0.316 µM, first compound 0.0316 µM
[4] = second compound 0.316 µM, first compound 0.1 µM
[5] = second compound 1 µM, first compound 0.0316 µM
[6] = second compound 1 µM, first compound 0.1 µM
[7] = second compound 3.16 µM, first compound 0.0316 µM
[8] = second compound 3.16 µM, first compound 0.1 µM
[9] = second compound 10 µM, first compound 0.0316 µM
[10] = second compound 10 µM, first compound 0.1 µM
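Also: spheroids exposed to compounds for 7 days before readout.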
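For viability, T/C in this document: 100% = DMSO vehicle control wells.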

Structure (SMILES): CC1(C)CCC(CN2CCN(c3ccc(C(=O)NS(=O)(=O)c4ccc(NCC5CCOCC5)c([N+](=O)[O-])c4)c(Oc4cnc5[nH]ccc5c4)c3)CC2)=C(c2ccc(Cl)cc2)C1 + NC1CC1c1ccc(-c2cccc(O)c2)cc1
- pIC50 (second compound 0.1 µM): < 5.00
- pIC50 (second compound 0.316 µM): < 5.00
- pIC50 (second compound 1 µM): < 5.00
- pIC50 (second compound 3.16 µM): < 5.00
- pIC50 (second compound 10 µM): < 5.00
- viability, T/C [1]: 90.8%
- viability, T/C [2]: 119%
- viability, T/C (second compound 0.1 µM, first compound 0.316 µM): 106%
- viability, T/C (second compound 0.1 µM, first compound 1 µM): 110%
- viability, T/C (second compound 0.1 µM, first compound 3.16 µM): 122%
- viability, T/C (second compound 0.1 µM, first compound 10 µM): 117%
- viability, T/C [3]: 107%
- viability, T/C [4]: 120%
- viability, T/C (second compound 0.316 µM, first compound 0.316 µM): 112%
- viability, T/C (second compound 0.316 µM, first compound 1 µM): 110%
- viability, T/C (second compound 0.316 µM, first compound 3.16 µM): 119%
- viability, T/C (second compound 0.316 µM, first compound 10 µM): 120%
- viability, T/C [5]: 105%
- viability, T/C [6]: 102%
- viability, T/C (second compound 1 µM, first compound 0.316 µM): 117%
- viability, T/C (second compound 1 µM, first compound 1 µM): 130%
- viability, T/C (second compound 1 µM, first compound 3.16 µM): 113%
- viability, T/C (second compound 1 µM, first compound 10 µM): 107%
- viability, T/C [7]: 103%
- viability, T/C [8]: 104%
- viability, T/C (second compound 3.16 µM, first compound 0.316 µM): 111%
- viability, T/C (second compound 3.16 µM, first compound 1 µM): 109%
- viability, T/C (second compound 3.16 µM, first compound 3.16 µM): 121%
- viability, T/C (second compound 3.16 µM, first compound 10 µM): 94.8%
- viability, T/C [9]: 109%
- viability, T/C [10]: 103%
- viability, T/C (second compound 10 µM, first compound 0.316 µM): 128%
- viability, T/C (second compound 10 µM, first compound 1 µM): 111%
- viability, T/C (second compound 10 µM, first compound 3.16 µM): 113%
- viability, T/C (second compound 10 µM, first compound 10 µM): 95.3%

Structure (SMILES): Cn1ncnc1C1c2n[nH]c(=O)c3cc(F)cc(c23)NC1c1ccc(F)cc1 (stereo not given) + NC1CC1c1ccc(-c2cccc(O)c2)cc1
- pIC50 (second compound 0.1 µM): < 7.00
- pIC50 (second compound 0.316 µM): < 7.00
- pIC50 (second compound 1 µM): < 7.00
- pIC50 (second compound 3.16 µM): < 7.00
- pIC50 (second compound 10 µM): < 7.00
- viability, T/C (second compound 0.1 µM, first compound 0.000316 µM): 118%
- viability, T/C (second compound 0.1 µM, first compound 0.001 µM): 100%
- viability, T/C (second compound 0.1 µM, first compound 0.00316 µM): 102%
- viability, T/C (second compound 0.1 µM, first compound 0.01 µM): 82.8%
- viability, T/C [1]: 92.4%
- viability, T/C [2]: 90.4%
- viability, T/C (second compound 0.316 µM, first compound 0.000316 µM): 106%
- viability, T/C (second compound 0.316 µM, first compound 0.001 µM): 106%
- viability, T/C (second compound 0.316 µM, first compound 0.00316 µM): 101%
- viability, T/C (second compound 0.316 µM, first compound 0.01 µM): 96.1%
- viability, T/C [3]: 98.3%
- viability, T/C [4]: 94.1%
- viability, T/C (second compound 1 µM, first compound 0.000316 µM): 93.1%
- viability, T/C (second compound 1 µM, first compound 0.001 µM): 103%
- viability, T/C (second compound 1 µM, first compound 0.00316 µM): 100%
- viability, T/C (second compound 1 µM, first compound 0.01 µM): 93%
- viability, T/C [5]: 84.6%
- viability, T/C [6]: 97%
- viability, T/C (second compound 3.16 µM, first compound 0.000316 µM): 97.9%
- viability, T/C (second compound 3.16 µM, first compound 0.001 µM): 104%
- viability, T/C (second compound 3.16 µM, first compound 0.00316 µM): 97.8%
- viability, T/C (second compound 3.16 µM, first compound 0.01 µM): 99.1%
- viability, T/C [7]: 87.8%
- viability, T/C [8]: 96.9%
- viability, T/C (second compound 10 µM, first compound 0.000316 µM): 93.8%
- viability, T/C (second compound 10 µM, first compound 0.001 µM): 111%
- viability, T/C (second compound 10 µM, first compound 0.00316 µM): 97.1%
- viability, T/C (second compound 10 µM, first compound 0.01 µM): 105%
- viability, T/C [9]: 100%
- viability, T/C [10]: 90.8%

Structure (SMILES): NS(=O)(=O)OCC1CC(n2ccc3c(NC4CCc5ccccc54)ncnc32)CC1O (stereo not given) + NC1CC1c1ccc(-c2cccc(O)c2)cc1
- pIC50 (second compound 0.1 µM): < 5.52
- pIC50 (second compound 0.316 µM): < 5.52
- pIC50 (second compound 1 µM): < 5.52
- pIC50 (second compound 3.16 µM): < 5.52
- pIC50 (second compound 10 µM): < 5.52
- viability, T/C (second compound 0.1 µM, first compound 0.00949 µM): 98%
- viability, T/C (second compound 0.1 µM, first compound 0.03 µM): 107%
- viability, T/C (second compound 0.1 µM, first compound 0.0949 µM): 127%
- viability, T/C (second compound 0.1 µM, first compound 0.3 µM): 154%
- viability, T/C (second compound 0.1 µM, first compound 0.949 µM): 154%
- viability, T/C (second compound 0.1 µM, first compound 3 µM): 134%
- viability, T/C (second compound 0.316 µM, first compound 0.00949 µM): 98.3%
- viability, T/C (second compound 0.316 µM, first compound 0.03 µM): 97.4%
- viability, T/C (second compound 0.316 µM, first compound 0.0949 µM): 125%
- viability, T/C (second compound 0.316 µM, first compound 0.3 µM): 150%
- viability, T/C (second compound 0.316 µM, first compound 0.949 µM): 134%
- viability, T/C (second compound 0.316 µM, first compound 3 µM): 149%
- viability, T/C (second compound 1 µM, first compound 0.00949 µM): 108%
- viability, T/C (second compound 1 µM, first compound 0.03 µM): 111%
- viability, T/C (second compound 1 µM, first compound 0.0949 µM): 125%
- viability, T/C (second compound 1 µM, first compound 0.3 µM): 152%
- viability, T/C (second compound 1 µM, first compound 0.949 µM): 168%
- viability, T/C (second compound 1 µM, first compound 3 µM): 137%
- viability, T/C (second compound 3.16 µM, first compound 0.00949 µM): 96.5%
- viability, T/C (second compound 3.16 µM, first compound 0.03 µM): 104%
- viability, T/C (second compound 3.16 µM, first compound 0.0949 µM): 122%
- viability, T/C (second compound 3.16 µM, first compound 0.3 µM): 145%
- viability, T/C (second compound 3.16 µM, first compound 0.949 µM): 140%
- viability, T/C (second compound 3.16 µM, first compound 3 µM): 130%
- viability, T/C (second compound 10 µM, first compound 0.00949 µM): 90%
- viability, T/C (second compound 10 µM, first compound 0.03 µM): 98.6%
- viability, T/C (second compound 10 µM, first compound 0.0949 µM): 129%
- viability, T/C (second compound 10 µM, first compound 0.3 µM): 153%
- viability, T/C (second compound 10 µM, first compound 0.949 µM): 150%
- viability, T/C (second compound 10 µM, first compound 3 µM): 142%
